Results from PMC12090182, “Repurposing of the RIPK1-Selective Benzo[1,4]oxazepin-4-one Scaffold for the Development of a Type III LIMK1/2 Inhibitor” (ACS Chemical Biology, 2025).
Read-outs that look alike come from different tables or passages of the source.

Legend:
Assay in all cases: biochemical
Type in all cases: binding
[1] = target: 468 kinases including some pathogenic mutants (Homo sapiens, UniProt Q96SB4); details: SRPK1 (Entrez SRPK1), 100 nM; read-out: Percent Control
[2] = target: 468 kinases including some pathogenic mutants (Homo sapiens, UniProt O00506); details: YSK1 (Entrez STK25), 1000 nM; read-out: Percent Control
[3] = target: 468 kinases including some pathogenic mutants (Homo sapiens, UniProt Q7L7X3); details: TAOK1 (Entrez TAOK1), 1000 nM; read-out: Percent Control
[4] = target: 468 kinases including some pathogenic mutants (Homo sapiens, UniProt P42336, H1047Y); details: read-out: Percent Control
[5] = target: 468 kinases including some pathogenic mutants (Homo sapiens, UniProt Q32MK0); details: MLCK (Entrez MYLK3), 100 nM; read-out: Percent Control
[6] = target: 468 kinases including some pathogenic mutants (Homo sapiens, UniProt Q13557); details: CAMK2D (Entrez CAMK2D), 100 nM; read-out: Percent Control
[7] = target: 468 kinases including some pathogenic mutants (Homo sapiens, UniProt Q8IW41); details: MAPKAPK5 (Entrez MAPKAPK5), 1000 nM; read-out: Percent Control
Sequence of 468 kinases including some pathogenic mutants (Homo sapiens, UniProt Q8IW41) (Q8IW41 whole entry, change not shown): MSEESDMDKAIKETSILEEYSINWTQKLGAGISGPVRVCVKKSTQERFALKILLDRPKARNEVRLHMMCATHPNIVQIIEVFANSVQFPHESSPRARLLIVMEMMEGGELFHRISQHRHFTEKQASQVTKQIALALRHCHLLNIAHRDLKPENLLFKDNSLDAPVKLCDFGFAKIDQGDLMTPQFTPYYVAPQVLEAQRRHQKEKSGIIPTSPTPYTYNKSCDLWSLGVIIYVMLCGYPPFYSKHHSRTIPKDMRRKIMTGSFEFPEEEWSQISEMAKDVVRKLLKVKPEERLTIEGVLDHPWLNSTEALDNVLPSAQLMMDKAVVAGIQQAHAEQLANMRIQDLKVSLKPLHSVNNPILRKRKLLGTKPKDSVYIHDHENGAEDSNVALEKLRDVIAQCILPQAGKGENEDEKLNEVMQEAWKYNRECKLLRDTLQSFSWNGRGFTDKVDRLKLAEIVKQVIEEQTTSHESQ

[8] = target: 468 kinases including some pathogenic mutants (Homo sapiens, UniProt P0C264); details: SgK110 (Entrez SgK110), 1000 nM; read-out: Percent Control
[9] = target: 468 kinases including some pathogenic mutants (Homo sapiens, UniProt Q13188); details: MST2 (Entrez STK3), 100 nM; read-out: Percent Control
[10] = system: 468 kinases including some pathogenic mutants
[11] = target: 468 kinases including some pathogenic mutants (Homo sapiens, UniProt O14578); details: CIT (Entrez CIT), 100 nM; read-out: Percent Control
[12] = target: 468 kinases including some pathogenic mutants (Homo sapiens, UniProt P42336, M1043I); details: read-out: Percent Control
[13] = target: 468 kinases including some pathogenic mutants (Homo sapiens, UniProt P08922); details: ROS1 (Entrez ROS1), 100 nM; read-out: Percent Control
Sequence of 468 kinases including some pathogenic mutants (Homo sapiens, UniProt P08922) (P08922 28-2347, change not shown): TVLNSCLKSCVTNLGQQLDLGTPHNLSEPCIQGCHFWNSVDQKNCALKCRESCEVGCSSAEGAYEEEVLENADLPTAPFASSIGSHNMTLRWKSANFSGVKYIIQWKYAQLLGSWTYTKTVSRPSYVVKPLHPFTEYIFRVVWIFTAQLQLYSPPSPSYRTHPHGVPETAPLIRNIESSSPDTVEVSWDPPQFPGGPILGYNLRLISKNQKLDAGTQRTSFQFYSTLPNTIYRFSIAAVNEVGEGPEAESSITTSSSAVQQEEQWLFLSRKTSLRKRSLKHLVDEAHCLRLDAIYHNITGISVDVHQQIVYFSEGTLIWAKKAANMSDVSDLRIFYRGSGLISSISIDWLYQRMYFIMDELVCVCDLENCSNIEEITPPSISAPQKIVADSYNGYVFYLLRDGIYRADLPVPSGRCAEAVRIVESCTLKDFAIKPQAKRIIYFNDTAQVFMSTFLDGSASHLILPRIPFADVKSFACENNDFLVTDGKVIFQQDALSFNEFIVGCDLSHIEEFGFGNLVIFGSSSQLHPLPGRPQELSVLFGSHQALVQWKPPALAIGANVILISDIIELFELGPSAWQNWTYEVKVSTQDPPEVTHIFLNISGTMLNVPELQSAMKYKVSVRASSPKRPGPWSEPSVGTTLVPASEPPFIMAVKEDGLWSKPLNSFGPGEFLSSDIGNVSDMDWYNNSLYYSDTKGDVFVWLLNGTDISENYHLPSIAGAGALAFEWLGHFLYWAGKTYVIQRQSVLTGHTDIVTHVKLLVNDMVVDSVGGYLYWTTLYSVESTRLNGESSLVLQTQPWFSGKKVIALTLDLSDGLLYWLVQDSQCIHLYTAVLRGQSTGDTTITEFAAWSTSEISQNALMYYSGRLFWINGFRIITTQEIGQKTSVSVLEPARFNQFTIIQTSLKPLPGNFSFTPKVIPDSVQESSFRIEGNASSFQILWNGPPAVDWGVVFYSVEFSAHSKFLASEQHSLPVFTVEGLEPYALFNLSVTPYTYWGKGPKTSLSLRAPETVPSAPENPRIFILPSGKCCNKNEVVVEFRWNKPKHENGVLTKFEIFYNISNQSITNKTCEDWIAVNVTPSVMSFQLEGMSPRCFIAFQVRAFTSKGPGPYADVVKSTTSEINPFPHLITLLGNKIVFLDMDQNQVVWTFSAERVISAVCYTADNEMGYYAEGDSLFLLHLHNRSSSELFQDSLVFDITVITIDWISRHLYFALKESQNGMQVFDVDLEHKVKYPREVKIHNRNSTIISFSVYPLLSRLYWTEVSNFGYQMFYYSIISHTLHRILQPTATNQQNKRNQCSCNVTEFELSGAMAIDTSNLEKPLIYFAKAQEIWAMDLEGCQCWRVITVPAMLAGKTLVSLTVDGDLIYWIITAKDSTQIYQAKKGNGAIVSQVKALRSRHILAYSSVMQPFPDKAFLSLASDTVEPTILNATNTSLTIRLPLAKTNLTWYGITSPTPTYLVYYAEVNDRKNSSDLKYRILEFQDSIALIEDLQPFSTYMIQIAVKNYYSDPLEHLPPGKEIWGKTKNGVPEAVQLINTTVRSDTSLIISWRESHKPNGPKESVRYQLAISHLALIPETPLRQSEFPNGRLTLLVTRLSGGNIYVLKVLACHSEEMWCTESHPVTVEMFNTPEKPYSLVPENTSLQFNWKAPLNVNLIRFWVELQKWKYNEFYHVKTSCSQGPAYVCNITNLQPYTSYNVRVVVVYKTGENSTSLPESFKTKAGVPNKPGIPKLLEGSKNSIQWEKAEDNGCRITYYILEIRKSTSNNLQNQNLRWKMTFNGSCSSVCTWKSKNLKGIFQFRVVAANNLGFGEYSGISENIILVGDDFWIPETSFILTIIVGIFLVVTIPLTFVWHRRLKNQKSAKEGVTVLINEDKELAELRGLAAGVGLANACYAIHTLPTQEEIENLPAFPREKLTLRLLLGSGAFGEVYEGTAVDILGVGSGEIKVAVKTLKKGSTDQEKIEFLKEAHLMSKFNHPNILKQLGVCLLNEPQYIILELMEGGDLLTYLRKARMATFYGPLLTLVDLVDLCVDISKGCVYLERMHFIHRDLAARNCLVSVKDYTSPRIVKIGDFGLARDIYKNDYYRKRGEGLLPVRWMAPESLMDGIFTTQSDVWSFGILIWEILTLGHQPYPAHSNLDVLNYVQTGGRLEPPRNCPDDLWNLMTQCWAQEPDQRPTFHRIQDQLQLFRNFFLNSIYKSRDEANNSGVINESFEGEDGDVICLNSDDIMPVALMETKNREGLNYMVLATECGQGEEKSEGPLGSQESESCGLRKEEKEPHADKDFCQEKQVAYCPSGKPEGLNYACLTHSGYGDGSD

[14] = target: 468 kinases including some pathogenic mutants (Homo sapiens, UniProt O95382); details: ASK2 (Entrez MAP3K6), 100 nM; read-out: Percent Control
[15] = target: 468 kinases including some pathogenic mutants (Homo sapiens, UniProt Q9NQU5); details: PAK6 (Entrez PAK6), 1000 nM; read-out: Percent Control
[16] = target: 468 kinases including some pathogenic mutants (Homo sapiens, UniProt Q9NRH2); details: SNRK (Entrez SNRK), 1000 nM; read-out: Percent Control
[17] = target: 468 kinases including some pathogenic mutants (Homo sapiens, UniProt P00533, G719C); details: read-out: Percent Control
[18] = target: 468 kinases including some pathogenic mutants (Homo sapiens, UniProt P32298); details: GRK4 (Entrez GRK4), 100 nM; read-out: Percent Control
[19] = target: 468 kinases including some pathogenic mutants (Homo sapiens, UniProt P33981); details: TTK (Entrez TTK), 100 nM; read-out: Percent Control
[20] = target: 468 kinases including some pathogenic mutants (Homo sapiens, UniProt P49137); details: MAPKAPK2 (Entrez MAPKAPK2), 100 nM; read-out: Percent Control
Sequence of 468 kinases including some pathogenic mutants (Homo sapiens, UniProt P49137) (P49137 whole entry, change not shown): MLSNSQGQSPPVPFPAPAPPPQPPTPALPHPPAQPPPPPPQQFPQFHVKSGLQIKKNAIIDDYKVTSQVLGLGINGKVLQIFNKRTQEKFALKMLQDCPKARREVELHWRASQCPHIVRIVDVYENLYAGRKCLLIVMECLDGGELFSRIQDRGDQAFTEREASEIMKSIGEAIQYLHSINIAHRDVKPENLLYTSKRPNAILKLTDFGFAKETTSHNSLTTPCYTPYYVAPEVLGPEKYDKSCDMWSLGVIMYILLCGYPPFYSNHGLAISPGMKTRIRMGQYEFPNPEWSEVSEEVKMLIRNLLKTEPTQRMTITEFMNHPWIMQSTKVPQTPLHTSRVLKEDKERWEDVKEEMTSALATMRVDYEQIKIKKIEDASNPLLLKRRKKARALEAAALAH

[21] = target: 468 kinases including some pathogenic mutants (Homo sapiens, UniProt Q96L34); details: MARK4 (Entrez MARK4), 1000 nM; read-out: Percent Control
[22] = target: 468 kinases including some pathogenic mutants (Homo sapiens, UniProt O60331); details: PIP5K1C (Entrez PIP5K1C), 1000 nM; read-out: Percent Control
Sequence of 468 kinases including some pathogenic mutants (Homo sapiens, UniProt O60331) (O60331 whole entry, change not shown): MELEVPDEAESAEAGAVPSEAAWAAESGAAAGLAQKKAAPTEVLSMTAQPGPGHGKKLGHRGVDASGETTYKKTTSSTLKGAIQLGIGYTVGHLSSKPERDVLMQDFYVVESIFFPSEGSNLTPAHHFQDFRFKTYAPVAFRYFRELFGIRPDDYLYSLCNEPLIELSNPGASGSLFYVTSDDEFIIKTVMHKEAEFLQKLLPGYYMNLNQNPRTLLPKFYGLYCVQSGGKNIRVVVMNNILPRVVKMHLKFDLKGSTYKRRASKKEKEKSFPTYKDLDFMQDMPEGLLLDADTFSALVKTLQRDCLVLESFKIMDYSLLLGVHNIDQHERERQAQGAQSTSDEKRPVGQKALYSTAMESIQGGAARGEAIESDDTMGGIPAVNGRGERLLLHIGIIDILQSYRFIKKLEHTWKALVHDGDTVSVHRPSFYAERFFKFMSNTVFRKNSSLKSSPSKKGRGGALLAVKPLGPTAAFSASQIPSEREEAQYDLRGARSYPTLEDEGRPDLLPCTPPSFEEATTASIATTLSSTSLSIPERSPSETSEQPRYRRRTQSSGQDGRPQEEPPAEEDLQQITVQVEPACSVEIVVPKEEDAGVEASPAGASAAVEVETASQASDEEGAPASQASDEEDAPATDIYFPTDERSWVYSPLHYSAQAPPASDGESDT

[23] = target: 468 kinases including some pathogenic mutants (Homo sapiens, UniProt P35968); details: VEGFR2 (Entrez KDR), 100 nM; read-out: Percent Control
[24] = target: 468 kinases including some pathogenic mutants (Homo sapiens, UniProt Q6PHR2); details: ULK3 (Entrez ULK3), 100 nM; read-out: Percent Control
[25] = target: 468 kinases including some pathogenic mutants (Homo sapiens, UniProt Q8IY84); details: NIM1 (Entrez MGC42105), 1000 nM; read-out: Percent Control
Sequence of 468 kinases including some pathogenic mutants (Homo sapiens, UniProt Q8IY84) (Q8IY84 whole entry, change not shown): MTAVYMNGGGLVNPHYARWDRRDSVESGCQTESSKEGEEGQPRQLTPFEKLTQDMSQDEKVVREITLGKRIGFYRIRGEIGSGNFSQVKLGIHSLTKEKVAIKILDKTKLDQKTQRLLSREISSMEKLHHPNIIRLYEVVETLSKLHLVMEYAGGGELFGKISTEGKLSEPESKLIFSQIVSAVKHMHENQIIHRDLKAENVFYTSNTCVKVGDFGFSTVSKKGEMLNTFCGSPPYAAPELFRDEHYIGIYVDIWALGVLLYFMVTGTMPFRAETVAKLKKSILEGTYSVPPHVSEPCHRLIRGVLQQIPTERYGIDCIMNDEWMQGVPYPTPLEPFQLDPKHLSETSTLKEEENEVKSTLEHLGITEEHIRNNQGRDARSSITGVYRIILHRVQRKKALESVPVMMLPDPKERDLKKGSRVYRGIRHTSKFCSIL

[26] = target: 468 kinases including some pathogenic mutants (Homo sapiens, UniProt O75676); details: 1000 nM, read-out: Percent Control
Sequence of 468 kinases including some pathogenic mutants (Homo sapiens, UniProt O75676) (O75676 whole entry, change not shown): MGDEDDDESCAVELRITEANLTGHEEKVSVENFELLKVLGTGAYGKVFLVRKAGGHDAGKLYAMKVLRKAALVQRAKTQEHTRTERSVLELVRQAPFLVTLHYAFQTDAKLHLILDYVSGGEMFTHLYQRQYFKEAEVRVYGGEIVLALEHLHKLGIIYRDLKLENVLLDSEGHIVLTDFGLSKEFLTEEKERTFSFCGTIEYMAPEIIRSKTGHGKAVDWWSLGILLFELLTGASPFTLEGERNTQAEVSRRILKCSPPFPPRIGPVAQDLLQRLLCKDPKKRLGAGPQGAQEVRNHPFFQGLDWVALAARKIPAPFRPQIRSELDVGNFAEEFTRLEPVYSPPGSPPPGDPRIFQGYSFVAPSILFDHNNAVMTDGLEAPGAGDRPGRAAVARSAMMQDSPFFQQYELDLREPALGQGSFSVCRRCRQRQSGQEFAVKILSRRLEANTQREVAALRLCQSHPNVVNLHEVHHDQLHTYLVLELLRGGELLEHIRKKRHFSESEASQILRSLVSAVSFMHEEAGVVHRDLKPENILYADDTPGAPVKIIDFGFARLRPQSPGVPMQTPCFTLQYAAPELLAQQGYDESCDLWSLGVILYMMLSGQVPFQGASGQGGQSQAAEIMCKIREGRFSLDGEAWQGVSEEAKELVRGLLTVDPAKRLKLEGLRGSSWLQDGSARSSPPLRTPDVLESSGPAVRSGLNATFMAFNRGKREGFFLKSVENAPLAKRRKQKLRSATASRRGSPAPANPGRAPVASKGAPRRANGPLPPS

[27] = target: 468 kinases including some pathogenic mutants (Homo sapiens, UniProt O96013); details: PAK4 (Entrez PAK4), 100 nM; read-out: Percent Control
[28] = target: 468 kinases including some pathogenic mutants (Homo sapiens, UniProt Q9H0K1); details: SIK2 (Entrez SIK2), 1000 nM; read-out: Percent Control
[29] = target: 468 kinases including some pathogenic mutants (Homo sapiens, UniProt Q86UE8); details: TLK2 (Entrez TLK2), 1000 nM; read-out: Percent Control

**Q.** Which remaining activity at 0.1 µM [1] does the source give for `CN1C(=O)[C@@H](N2CCc3c(nn(Cc4ccccc4)c3C(N)=O)C2=O)COc2cc(Cl)ccc21` [Compound 10, (S)-2-benzyl-6-(8-chloro-5-methyl-4-oxo-2,3,4,5-tetrahydrobenzo[b][1,4]oxazepin-3-yl)-7-oxo-4,5,6,7-tetrahydro-2H-pyrazolo[3,4-c]pyridine-3-carboxamide] here?
**A.** The remaining activity at 0.1 µM was 100%.

**Q.** And the remaining activity at 1 µM [2]?
**A.** The remaining activity at 1 µM was 100%.

**Q.** What about the remaining activity at 1 µM [3] of the same compound?
**A.** The remaining activity at 1 µM was 100%.

**Q.** What about the remaining activity at 1 µM [4] of the same compound?
**A.** Its remaining activity at 1 µM is 100%.

**Q.** And the remaining activity at 0.1 µM [5]?
**A.** The remaining activity at 0.1 µM was 91%.

**Q.** And the remaining activity at 0.1 µM [6]?
**A.** The remaining activity at 0.1 µM was 80%.

**Q.** And the remaining activity at 1 µM [7]?
**A.** Its remaining activity at 1 µM is 100%.

**Q.** And the remaining activity at 1 µM [8]?
**A.** Its remaining activity at 1 µM is 100%.

**Q.** And the remaining activity at 0.1 µM [9]?
**A.** The remaining activity at 0.1 µM was 64%.

**Q.** What about the “Percent Control” value [10] of the same compound?
**A.** Its value is 100%.

**Q.** And the “Percent Control” value ([10]; FLT3(ITD) (Entrez FLT3), 100 nM)?
**A.** Its value is 54%.

**Q.** And the remaining activity at 0.1 µM [11]?
**A.** The remaining activity at 0.1 µM was 95%.

**Q.** And the remaining activity at 0.1 µM [12]?
**A.** The remaining activity at 0.1 µM was 78%.

**Q.** What about the remaining activity at 0.1 µM [13] of the same compound?
**A.** Its remaining activity at 0.1 µM is 78%.

**Q.** And the remaining activity at 0.1 µM [14]?
**A.** The remaining activity at 0.1 µM was 76%.

**Q.** What about the remaining activity at 1 µM [15] of the same compound?
**A.** The remaining activity at 1 µM was 100%.

**Q.** And the remaining activity at 1 µM [16]?
**A.** Its remaining activity at 1 µM is 100%.

**Q.** What about the remaining activity at 0.1 µM [17] of the same compound?
**A.** The remaining activity at 0.1 µM was 100%.

**Q.** What about the remaining activity at 0.1 µM [18] of the same compound?
**A.** The remaining activity at 0.1 µM was 82%.

**Q.** What about the remaining activity at 0.1 µM [19] of the same compound?
**A.** The remaining activity at 0.1 µM was 82%.

**Q.** And the remaining activity at 0.1 µM [20]?
**A.** The remaining activity at 0.1 µM was 53%.

**Q.** And the remaining activity at 1 µM [21]?
**A.** The remaining activity at 1 µM was 100%.

**Q.** And the remaining activity at 1 µM [22]?
**A.** Its remaining activity at 1 µM is 100%.

**Q.** What about the remaining activity at 0.1 µM [23] of the same compound?
**A.** Its remaining activity at 0.1 µM is 81%.

**Q.** What about the remaining activity at 0.1 µM [24] of the same compound?
**A.** The remaining activity at 0.1 µM was 100%.

**Q.** And the remaining activity at 1 µM [25]?
**A.** Its remaining activity at 1 µM is 100%.

**Q.** And the remaining activity at 1 µM ([26]; RPS6KA4(Kin.Dom.1-N-terminal) (Entrez RPS6KA4))?
**A.** Its remaining activity at 1 µM is 100%.

**Q.** What about the remaining activity at 1 µM ([26]; RPS6KA4(Kin.Dom.2-C-terminal) (Entrez RPS6KA4)) of the same compound?
**A.** The remaining activity at 1 µM was 100%.

**Q.** What about the remaining activity at 0.1 µM [27] of the same compound?
**A.** Its remaining activity at 0.1 µM is 100%.

**Q.** What about the remaining activity at 1 µM [28] of the same compound?
**A.** The remaining activity at 1 µM was 100%.

**Q.** What about the remaining activity at 1 µM [29] of the same compound?
**A.** The remaining activity at 1 µM was 100%.
